In patent publication US9951149B2, “Reversible heparin molecules and methods of making and using the same” (The University of North Carolina at Chapel Hill, priority 2013, dated 2018):
“Also recorded” adds a separate entry of the source.

Experiments:
[1] = molecular target: T1, Stabilin-2 receptor (190-HARE) (Homo sapiens, UniProt Q8WWQ8); assay: Stabilin-2 mediated endocytosis of 35S-labeled LMWHs in Flp-In-293 cells; format: cell-based; details: Flp-In-293 cells expressing 190-HARE, 3 h at 37° C. (FIG. 5)
T1 construct: The Stabilin-2 cell line expressing the 190-HARE; expressed in transfected cells
T1 sequence (Q8WWQ8 1136-2551 limits assumed): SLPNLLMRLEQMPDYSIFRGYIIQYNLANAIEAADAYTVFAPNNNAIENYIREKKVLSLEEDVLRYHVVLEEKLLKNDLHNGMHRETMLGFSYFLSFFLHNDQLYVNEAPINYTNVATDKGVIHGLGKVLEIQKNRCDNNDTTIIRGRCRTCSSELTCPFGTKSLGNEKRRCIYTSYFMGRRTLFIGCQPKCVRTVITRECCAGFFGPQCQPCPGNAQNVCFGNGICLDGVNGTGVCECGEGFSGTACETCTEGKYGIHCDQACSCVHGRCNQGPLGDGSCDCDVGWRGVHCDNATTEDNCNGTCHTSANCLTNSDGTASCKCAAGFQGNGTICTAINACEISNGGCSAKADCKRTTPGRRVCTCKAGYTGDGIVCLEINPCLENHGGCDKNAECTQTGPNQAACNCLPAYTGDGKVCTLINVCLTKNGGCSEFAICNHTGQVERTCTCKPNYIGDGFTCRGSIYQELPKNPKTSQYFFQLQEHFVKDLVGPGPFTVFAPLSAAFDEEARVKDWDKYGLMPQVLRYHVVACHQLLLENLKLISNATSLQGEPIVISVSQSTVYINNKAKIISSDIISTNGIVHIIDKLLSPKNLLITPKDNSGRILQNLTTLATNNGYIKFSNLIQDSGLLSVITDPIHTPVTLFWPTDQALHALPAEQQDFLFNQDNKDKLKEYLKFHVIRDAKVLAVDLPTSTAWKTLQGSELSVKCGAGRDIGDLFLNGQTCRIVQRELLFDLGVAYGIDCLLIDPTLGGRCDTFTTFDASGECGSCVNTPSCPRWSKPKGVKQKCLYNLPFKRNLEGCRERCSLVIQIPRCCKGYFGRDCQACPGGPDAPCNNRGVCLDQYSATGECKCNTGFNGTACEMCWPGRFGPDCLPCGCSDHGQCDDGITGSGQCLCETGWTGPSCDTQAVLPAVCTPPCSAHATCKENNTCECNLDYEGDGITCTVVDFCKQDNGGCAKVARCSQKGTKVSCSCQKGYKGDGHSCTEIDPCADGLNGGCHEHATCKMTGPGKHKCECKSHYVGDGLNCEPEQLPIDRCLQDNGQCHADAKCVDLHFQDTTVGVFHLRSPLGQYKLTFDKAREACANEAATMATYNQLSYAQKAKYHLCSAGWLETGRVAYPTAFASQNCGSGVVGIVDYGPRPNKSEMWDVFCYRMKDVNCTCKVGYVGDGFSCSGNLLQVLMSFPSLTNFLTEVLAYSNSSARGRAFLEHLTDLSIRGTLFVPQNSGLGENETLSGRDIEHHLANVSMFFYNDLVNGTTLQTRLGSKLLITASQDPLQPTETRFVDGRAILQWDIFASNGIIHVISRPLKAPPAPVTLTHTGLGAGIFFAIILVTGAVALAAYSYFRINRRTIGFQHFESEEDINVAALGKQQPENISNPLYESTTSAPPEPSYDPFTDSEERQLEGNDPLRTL
Description: FIG. 5 is a histogram of endocytosis of ^35S-labeled synthetic LMWHs in Flp-In-293 cells. The cells were stably transfected with the plasmid expressing the Stabilin-2 receptor (190-HARE). The internalization value was calculated by subtracting the nonspecific internalization background from the total internalization of a ^35S-labeled Compound. The background was determined by mixing the ^35S-labeled Compound with at least 100-fold molecular excess of unlabeled UFH.
The Stabilin-2 cell line expressing the 190-HARE (Harris et al., J. Biol. Chem. 279, 36201-36209, 2004) was grown to 90% confluency with DMEM+8% FBS+50 μgml^−1 Hygromycin B in 24-well plates for at least 2 days prior to the experiment in a standard tissue culture incubator. Endocytosis medium (DMEM+0.05% BSA) containing a known amount of ^35S-labeled LMWH Compound, LOVENOX®, or UFH was added to each well in triplicate and allowed to incubate with the cells for 3 h at 37° C., 5% CO2. Receptor specific internalization was assessed by incubating each radiolabeled ligand with at least a 100-fold excess of unlabeled UFH. The cells were then washed with Hank's Balanced Salt Solution (1.26 mM CaCl2, 5.33 mM KCl, 0.44 mM KH2PO4, 0.5 mM MgCl2-6H2O, 0.41 mM MgSO4-7H2O, 138 mM NaCl, 4.0 mM NaHCO3, […], 0.3 mM phenol red, pH 7.2) three-times, and cells were lysed in 0.4 ml 0.3 N NaOH. 0.35 ml of the cell lysate mixture was mixed with 4 ml scintillation fluid (Perkin Elmer, Waltham, Mass., United States of America) and radioactivity was measured by a Beckman Coulter LS6500 scintillation counter. The remaining 0.05 ml cell lysate was used to determine protein levels using the Bradford reagent (Sigma-Aldrich). The data was calculated as the percentage of specific CPM internalized of the total amount added per μg cell lysate protein±standard deviation.

[2] = Clearance of LMWHs in vivo: retention of 35S-labeled material in mouse liver; details: BALB/c mice, lateral tail vein injection, 12 min (FIG. 4A)
Description: The mouse experiment was approved by the University of Nebraska Animal Care and Use Committees. Five to six week old BALB/c mice (Harlan Laboratories, Indianapolis, Ind., United States of America) weighing 18-20 g were anesthetized in a small 34° C. chamber with a flow of oxygen containing 4% isoflurane. Once the mice were unconscious, they were individually placed on a heated pad with a nose cone fitted over their snout with a constant flow of oxygen containing 2% isoflurane. A specific amount of ^35S-labeled LMWH Compound, LMWH, or UFH was injected via the lateral tail vein using a 27G1/2 needle mounted on a 1 ml syringe. The labeled material was allowed to circulate in the blood for 12 min while the mouse lay unconscious. The abdominal cavity was exposed by incision and the liver was collected, washed, and weighed. Approximately 100 mg from each of the lobes was homogenized in 0.75 ml 1% NP-40 and then centrifuged at 12,000×g for 2 min to pellet insoluble material. The supernatant was then added to 4 ml scintillation fluid, mixed for 30 min by rocking and then radioactivity was assessed by a Beckman Coulter LS6500 scintillation counter. The data is presented as the percentage of CPM in total liver divided by total CPM injected±standard error of 3-5 mice per ligand.

SMILES	endocytosis mediated by Stabilin-2 (internalization) [1]	retention in the liver [2]
O=C(O)C1OC(OC2C(COS(=O)(=O)O)OC(OC3C(C(=O)O)OC(OC4C(COS(=O)(=O)O)OC(OC5C(C(=O)O)OC(OC6C(COS(=O)(=O)O)OC(OC7C(C(=O)O)OC(Oc8ccc([N+](=O)[O-])cc8)C(O)C7O)C(NS(=O)(=O)O)C6O)C(OS(=O)(=O)O)C5O)C(NS(=O)(=O)O)C4O)C(OS(=O)(=O)O)C3O)C(NS(=O)(=O)O)C2OS(=O)(=O)O)C(O)C(O)C1OC1OC(COS(=O)(=O)O)C(O)C(O)C1NS(=O)(=O)O (stereo not shown) [Compound 2]	very low internalization	very low level of retention in the liver
CC(=O)NC1C(OC2C(C(=O)O)OC(OC3C(COS(=O)(=O)O)OC(OC4C(C(=O)O)OC(OC5C(COS(=O)(=O)O)OC(OC6C(C(=O)O)OC(OC7C(COS(=O)(=O)O)OC(OC8C(C(=O)O)OC(OC9C(COS(=O)(=O)O)OC(OC%10C(C(=O)O)OC(OC%11C(COS(=O)(=O)O)OC(OC%12C(C(=O)O)OC(Oc%13ccc([N+](=O)[O-])cc%13)C(O)C%12O)C(NS(=O)(=O)O)C%11O)C(OS(=O)(=O)O)C%10O)C(NS(=O)(=O)O)C9OS(=O)(=O)O)C(OS(=O)(=O)O)C8O)C(NS(=O)(=O)O)C7O)C(OS(=O)(=O)O)C6O)C(NS(=O)(=O)O)C5O)C(OS(=O)(=O)O)C4O)C(NS(=O)(=O)O)C3OS(=O)(=O)O)C(O)C2O)OC(COS(=O)(=O)O)C(O)C1O (stereo not shown) [Compound 5]	significant endocytosis	retained in the liver; also recorded: internalized in mice liver
O=C(O)C1OC(OC2C(COS(=O)(=O)O)OC(OC3C(C(=O)O)OC(OC4C(COS(=O)(=O)O)OC(OC5C(C(=O)O)OC(Oc6ccc([N+](=O)[O-])cc6)C(O)C5O)C(NS(=O)(=O)O)C4O)C(OS(=O)(=O)O)C3O)C(NS(=O)(=O)O)C2OS(=O)(=O)O)C(O)C(O)C1OC1OC(COS(=O)(=O)O)C(O)C(O)C1NS(=O)(=O)O (stereo not shown) [Compound 1]	very low internalization	very low level of retention in the liver
CC(=O)NC1C(OC2C(C(=O)O)OC(OC3C(COS(=O)(=O)O)OC(OC4C(C(=O)O)OC(OC5C(COS(=O)(=O)O)OC(OC6C(C(=O)O)OC(OC7C(COS(=O)(=O)O)OC(OC8C(C(=O)O)OC(OC9C(COS(=O)(=O)O)OC(OC%10C(C(=O)O)OC(OC%11C(COS(=O)(=O)O)OC(OC%12C(C(=O)O)OC(Oc%13ccc([N+](=O)[O-])cc%13)C(O)C%12O)C(NS(=O)(=O)O)C%11O)C(OS(=O)(=O)O)C%10O)C(NS(=O)(=O)O)C9O)C(OS(=O)(=O)O)C8O)C(NS(=O)(=O)O)C7O)C(OS(=O)(=O)O)C6O)C(NS(=O)(=O)O)C5O)C(OS(=O)(=O)O)C4O)C(NS(=O)(=O)O)C3OS(=O)(=O)O)C(O)C2O)OC(COS(=O)(=O)O)C(O)C1O (stereo not shown) [Compound 4]	significant endocytosis	retained in the liver; also recorded: internalized in mice liver
O=C(O)C1OC(OC2C(COS(=O)(=O)O)OC(OC3C(C(=O)O)OC(OC4C(COS(=O)(=O)O)OC(OC5C(C(=O)O)OC(OC6C(COS(=O)(=O)O)OC(OC7C(C(=O)O)OC(OC8C(COS(=O)(=O)O)OC(OC9C(C(=O)O)OC(Oc%10ccc([N+](=O)[O-])cc%10)C(O)C9O)C(NS(=O)(=O)O)C8O)C(OS(=O)(=O)O)C7O)C(NS(=O)(=O)O)C6O)C(OS(=O)(=O)O)C5O)C(NS(=O)(=O)O)C4O)C(OS(=O)(=O)O)C3O)C(NS(=O)(=O)O)C2OS(=O)(=O)O)C(O)C(O)C1OC1OC(COS(=O)(=O)O)C(O)C(O)C1NS(=O)(=O)O (stereo not shown) [Compound 3]	significant endocytosis	retained in the liver; also recorded: internalized in mice liver
